Test results from BindingDB's records for doi:10.1016/j.bmcl.2003.12.023 (Pfizer, 2004).

Molecular target: Mitogen-activated protein kinase 14 (Homo sapiens, UniProt Q16539)
Test: Enzyme Inhibition Assay

Sequence of Mitogen-activated protein kinase 14 (Q16539 whole entry): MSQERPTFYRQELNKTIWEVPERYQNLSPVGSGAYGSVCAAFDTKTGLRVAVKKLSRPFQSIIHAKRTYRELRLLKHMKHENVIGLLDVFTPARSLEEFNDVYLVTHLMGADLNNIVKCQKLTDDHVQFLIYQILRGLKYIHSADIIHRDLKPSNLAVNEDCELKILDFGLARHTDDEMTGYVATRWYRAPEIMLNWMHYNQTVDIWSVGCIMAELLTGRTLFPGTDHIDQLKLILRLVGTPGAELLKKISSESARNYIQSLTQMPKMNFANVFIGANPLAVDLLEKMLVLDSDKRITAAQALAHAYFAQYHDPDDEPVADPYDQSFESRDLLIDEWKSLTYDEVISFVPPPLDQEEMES

IC50: 70 nM
SMILES: CCn1c(=O)n(CC)c2cc(-c3[nH]c(C4CCNCC4)nc3-c3cccc(C)c3)ccc21 [1,3-diethyl-5-[4-(3-methylphenyl)-2-(piperidin-4-yl)-1H-imidazol-5-yl]-2,3-dihydro-1H-1,3-benzodiazol-2-one]
